Source: patent US20250368619A1, “SUBSTITUTED TETRAHYDROCYCLOHEPTA[E]INDOLE DERIVATIVES, PROCESSES FOR THEIR PREPARATION AND THERAPEUTIC USES THEREOF” (SANOFI, priority 2022, published 2025)

Target: T1, ERα (Homo sapiens, UniProt P03372)
T1 construct: host or cells: MCF7
T1 sequence (P03372 1-595): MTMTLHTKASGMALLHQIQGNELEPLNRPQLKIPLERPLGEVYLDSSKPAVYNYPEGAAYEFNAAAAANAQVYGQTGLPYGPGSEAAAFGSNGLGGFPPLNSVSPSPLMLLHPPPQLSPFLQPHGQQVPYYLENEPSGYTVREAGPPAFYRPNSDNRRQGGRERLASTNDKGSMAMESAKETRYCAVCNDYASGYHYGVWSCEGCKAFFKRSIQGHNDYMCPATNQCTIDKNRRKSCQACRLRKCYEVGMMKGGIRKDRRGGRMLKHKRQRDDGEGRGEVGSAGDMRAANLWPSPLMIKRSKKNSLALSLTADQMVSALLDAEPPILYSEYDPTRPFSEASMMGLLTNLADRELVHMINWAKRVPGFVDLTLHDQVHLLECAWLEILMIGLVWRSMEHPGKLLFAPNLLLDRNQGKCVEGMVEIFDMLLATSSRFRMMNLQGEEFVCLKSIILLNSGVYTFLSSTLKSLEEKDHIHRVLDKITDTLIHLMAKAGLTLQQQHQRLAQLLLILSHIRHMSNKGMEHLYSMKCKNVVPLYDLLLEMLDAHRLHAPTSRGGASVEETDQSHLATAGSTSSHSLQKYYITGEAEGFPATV
Test: Estrogen receptor degradation activity: breast cancer cell ERα in cell western assay in MCF7 cells
Type: cell-based
Settings: 4 hours, relative to fulvestrant 0.1 μM positive control
Procedure: Test: Estrogen receptor degradation activity
Said test involves measuring the in vitro degradation activity of the compounds of the table 1.
The measurements of the degradation activities were made using a breast cancer cell ERα in cell western assay as described hereunder.
MCF7 cells (ATCC) were seeded in 384 wells microplate (collagen coated) at a concentration of 10000 cells/30 μL per well in red phenol free MEM alpha medium (invitrogen) containing 5% charcoal dextran striped FBS. The following day, 9 points serial 1:5 dilution of each compound was added to the cells in 2.5 μL at final concentrations ranging from 0.3-0.0000018 μM (in table 2), or 0.1 μM for fulvestrant (using as positive control). At 4 hours post compound addition the cells were fixed by adding 25 μL of formalin (final concentration 5% formalin containing 0.1% triton) for 10 minutes at RT and then washed twice with PBS. Then, 50 μL of LI-COR blocking buffer containing 0.1% Triton was added to plate for 30 minutes at RT. LI-COR blocking buffer was removed and cells were incubated overnight at cold room with 50 μL anti-ER rabbit monoclonal antibody (Thermo scientific MA1-39540) diluted at 1:1000 in LI-COR blocking buffer containing 0.1% tween-20. Wells which were treated with blocking buffer but no antibody were used as background control. Wells were washed twice with PBS (0.1% tween-20) and incubated at 37° C. for 60 minutes in LI-COR (0.1% tween-20) containing goat anti-rabbit antibody Alexa 488 (1:1000) and Syto-64 a DNA dye (2 μM final concentration). Cells were then washed 3 times in PBS and scanned in ACUMEN explorer (TTP-Labtech). Integrated intensities in the green fluorescence and red fluorescence were measured to determine the levels of ERα and DNA respectively.
The degradation activity with respect to estrogen receptors in this test is given by the concentration which degrades 50% of the estrogen receptor (or IC50) in nM.
The % of ERα levels decrease were determined as follows: % inhibition=100*(1−(sample−fulvestrant:DMSO−fulvestrant)).

Q: How did the “% Degradation At 0.3 μM” value turn out when `O=C(O)/C=C/C1=C(c2ccc(CC3CN(CCCF)C3)cc2)c2ccc3[nH]ccc3c2CCC1` [Compound 24, (E)-3-(6-(4-((1-(3-fluoropropyl)azetidin-3-yl)methyl)phenyl)-3,8,9,10-tetrahydrocyclohepta[e]indol-7-yl)acrylic acid] was run?
A: The value was 92%.

Q: `COc1ccc(C2=C(c3ccc(CC4CN(CCCF)C4)cc3)c3ccc4[nH]ccc4c3CCC2)cn1` [Compound 15, 6-(4-((1-(3-fluoropropyl)azetidin-3-yl)methyl)phenyl)-7-(6-methoxypyridin-3-yl)-3,8,9,10-tetrahydrocyclohepta[e]indole] was tested. Which “% Degradation At 0.3 μM” value did it give?
A: The value was 91%.

Q: `O=C(O)c1cccc(C2=C(c3ccc(CC4CN(CCCF)C4)cc3)c3ccc4[nH]ccc4c3CCC2)c1` [Compound 22, 3-(6-(4-((1-(3-fluoropropyl)azetidin-3-yl)methyl)phenyl)-3,8,9,10-tetrahydrocyclohepta[e]indol-7-yl)benzoic acid] was tested. Which “% Degradation At 0.3 μM” value did it give?
A: The value was 68%.

Q: With `N#Cc1cccc(C2=C(c3ccc(CC4CN(CCCF)C4)cc3)c3ccc4[nH]ccc4c3CCC2)c1` [Compound 11, 3-(6-(4-((1-(3-fluoropropyl)azetidin-3-yl)methyl)phenyl)-3,8,9,10-tetrahydrocyclohepta[e]indol-7-yl)benzonitrile] as the compound, how does the “% Degradation At 0.3 μM” value read?
A: The value was 75%.

Q: Which “% Degradation At 0.3 μM” value does the source give for `O=C(O)C(F)(F)F.O=C(O)c1ccc(C2=C(c3ccc(CC4CN(CCCF)C4)cc3)c3ccc4[nH]ccc4c3CCC2)cc1` [Compound 23, 4-(6-(4-((1-(3-fluoropropyl)azetidin-3-yl)methyl)phenyl)-3,8,9,10-tetrahydrocyclohepta[e]indol-7-yl)benzoic acid, 2,2,2-trifluoroacetic acid] here?
A: The value was 80%.

Q: With `FCCCN1CC(Cc2ccc(C3=C(C4=CCOCC4)CCCc4c3ccc3[nH]ccc43)cc2)C1` [Compound 16, 7-(3,6-dihydro-2H-pyran-4-yl)-6-(4-((1-(3-fluoropropyl)azetidin-3-yl)methyl)phenyl)-3,8,9,10-tetrahydrocyclohepta[e]indole] as the compound, how does the “% Degradation At 0.3 μM” value read?
A: The value was 74%.

Q: With `Cc1c(Cl)cccc1C1=C(c2ccc(N[C@H]3CCN(CCCF)C3)cc2)c2ccc3[nH]ccc3c2CCC1` [Compound 28, (S)-N-(4-(7-(3-chloro-2-methylphenyl)-3,8,9,10-tetrahydrocyclohepta[e]indol-6-yl)phenyl)-1-(3-fluoropropyl)pyrrolidin-3-amine] as the compound, how does the “% Degradation At 0.3 μM” value read?
A: Its value is 91%.

Q: `OCc1cccc(C2=C(c3ccc(CC4CN(CCCF)C4)cc3)c3ccc4[nH]ccc4c3CCC2)c1` [Compound 19, (3-(6-(4-((1-(3-fluoropropyl)azetidin-3-yl)methyl)phenyl)-3,8,9,10-tetrahydrocyclohepta[e]indol-7-yl)phenyl)methanol] was tested. Which “% Degradation At 0.3 μM” value did it give?
A: Its value is 71%.

Q: How did the “% Degradation At 0.3 μM” value turn out when `COc1nccc(C2=C(c3ccc(CC4CN(CCCF)C4)cc3)c3ccc4[nH]ccc4c3CCC2)c1F` [Compound 2, 7-(3-fluoro-2-methoxypyridin-4-yl)-6-(4-((1-(3-fluoropropyl)azetidin-3-yl)methyl)phenyl)-3,8,9,10-tetrahydrocyclohepta[e]indole] was run?
A: The value was 92%.

Q: With `N#Cc1ccc(C2=C(c3ccc(CC4CN(CCCF)C4)cc3)c3ccc4[nH]ccc4c3CCC2)cc1` [Compound 13, 4-(6-(4-((1-(3-fluoropropyl)azetidin-3-yl)methyl)phenyl)-3,8,9,10-tetrahydrocyclohepta[e]indol-7-yl)benzonitrile] as the compound, how does the “% Degradation At 0.3 μM” value read?
A: The value was 72%.

Q: For `CC(C)(O)/C=C/C1=C(c2ccc(CC3CN(CCCF)C3)cc2)c2ccc3[nH]ccc3c2CCC1` [Compound 18, (E)-4-(6-(4-((1-(3-fluoropropyl)azetidin-3-yl)methyl)phenyl)-3,8,9,10-tetrahydrocyclohepta[e]indol-7-yl)-2-methylbut-3-en-2-ol], which “% Degradation At 0.3 μM” value is on record?
A: Its value is 77%.

Q: For `OCCc1cccc(C2=C(c3ccc(CC4CN(CCCF)C4)cc3)c3ccc4[nH]ccc4c3CCC2)c1` [Compound 21, 2-(3-(6-(4-((1-(3-fluoropropyl)azetidin-3-yl)methyl)phenyl)-3,8,9,10-tetrahydrocyclohepta[e]indol-7-yl)phenyl)ethan-1-ol], which “% Degradation At 0.3 μM” value is on record?
A: Its value is 65%.

Q: With `Cc1cc(F)ccc1C1=C(c2ccc(CC3CN(CCCF)C3)cc2)c2ccc3[nH]ccc3c2CCC1` [Compound 1, 7-(4-fluoro-2-methylphenyl)-6-(4-((1-(3-fluoropropyl)azetidin-3-yl)methyl)phenyl)-3,8,9,10-tetrahydrocyclohepta[e]indole] as the compound, how does the “% Degradation At 0.3 μM” value read?
A: Its value is 80%.

Q: `FCCCN1CC[C@H](Oc2ccc(C3=C(C4=CCC(F)(F)CC4)CCCc4c3ccc3[nH]ccc43)cc2)C1` [Compound 5, (S)-7-(4,4-difluorocyclohex-1-en-1-yl)-6-(4-((1-(3-fluoropropyl)pyrrolidin-3-yl)oxy)phenyl)-3,8,9,10-tetrahydrocyclohepta[e]indole] was tested. Which “% Degradation At 0.3 μM” value did it give?
A: Its value is 95%.

Q: `OCCCC1=C(c2ccc(CC3CN(CCCF)C3)cc2)c2ccc3[nH]ccc3c2CCC1` [Compound 25, 3-(6-(4-((1-(3-fluoropropyl)azetidin-3-yl)methyl)phenyl)-3,8,9,10-tetrahydrocyclohepta[e]indol-7-yl)propan-1-ol] was tested. Which “% Degradation At 0.3 μM” value did it give?
A: Its value is 75%.

Q: For `COc1cc(C2=C(c3ccc(CC4CN(CCCF)C4)cc3)c3ccc4[nH]ccc4c3CCC2)ccn1` [Compound 14, 6-(4-((1-(3-fluoropropyl)azetidin-3-yl)methyl)phenyl)-7-(2-methoxypyridin-4-yl)-3,8,9,10-tetrahydrocyclohepta[e]indole], which “% Degradation At 0.3 μM” value is on record?
A: Its value is 91%.

Q: With `OC/C=C/C1=C(c2ccc(CC3CN(CCCF)C3)cc2)c2ccc3[nH]ccc3c2CCC1` [Compound 17, (E)-3-(6-(4-((1-(3-fluoropropyl)azetidin-3-yl)methyl)phenyl)-3,8,9,10-tetrahydrocyclohepta[e]indol-7-yl)prop-2-en-1-ol] as the compound, how does the “% Degradation At 0.3 μM” value read?
A: The value was 69%.

Q: `Cc1c(Cl)cccc1C1=C(c2ccc(OC3CN(CCCF)C3)cc2)c2ccc3[nH]ccc3c2CCC1` [Compound 26, 7-(3-chloro-2-methylphenyl)-6-(4-((1-(3-fluoropropyl)azetidin-3-yl)oxy)phenyl)-3,8,9,10-tetrahydrocyclohepta[e]indole] was tested. Which “% Degradation At 0.3 μM” value did it give?
A: Its value is 91%.

Q: Which “% Degradation At 0.3 μM” value does the source give for `FCCCN1CC(Cc2ccc(C3=C(c4ccc(Cl)cc4Cl)CCCc4c3ccc3[nH]ccc43)cc2)C1` [Compound 7, 7-(2,4-dichlorophenyl)-6-(4-((1-(3-fluoropropyl)azetidin-3-yl)methyl)phenyl)-3,8,9,10-tetrahydrocyclohepta[e]indole] here?
A: The value was 82%.

Q: How did the “% Degradation At 0.3 μM” value turn out when `COc1cccc(C2=C(c3ccc(CC4CN(CCCF)C4)cc3)c3ccc4[nH]ccc4c3CCC2)c1OC` [Compound 9, 7-(2,3-dimethoxyphenyl)-6-(4-((1-(3-fluoropropyl)azetidin-3-yl)methyl)phenyl)-3,8,9,10-tetrahydrocyclohepta[e]indole] was run?
A: The value was 80%.

Q: `OCc1ccc(C2=C(c3ccc(CC4CN(CCCF)C4)cc3)c3ccc4[nH]ccc4c3CCC2)cc1` [Compound 20, (4-(6-(4-((1-(3-fluoropropyl)azetidin-3-yl)methyl)phenyl)-3,8,9,10-tetrahydrocyclohepta[e]indol-7-yl)phenyl)methanol] was tested. Which “% Degradation At 0.3 μM” value did it give?
A: Its value is 76%.
